From PubChem BioAssay (NCI) come the findings set out here.

What all share (assay): growth of human tumour cells (NCI), 48 h
Experiment [1] deals with COLO 205 colon.
The test system of experiment [2] is KM12 colon.
Experiment [3] has as its system RXF 393 renal.
The test system of experiment [4] is MOLT-4 leukemia.
The subject of experiment [5] is SF-539 CNS.
For experiment [6], the system named is OVCAR-8 ovarian.
Experiment [7] has as its system EKVX NSCLC.
In experiment [8] the test system is HS 578T breast.
The test system of experiment [9] is HT29 colon.
In experiment [10] the test system is HOP-62 NSCLC.
Experiment [11] has as its system TK-10 renal.
Experiment [12] concerns 786-0 renal.
Experiment [13] deals with SF-295 CNS.
For experiment [14], the system named is MCF7 breast.
Experiment [15] relates to NCI-H226 lung.
In experiment [16] the test system is LOX IMVI melanoma.
For experiment [17], the system named is SNB-19 CNS.
Experiment [18] deals with U251 CNS.
Experiment [19] deals with UACC-62 melanoma.
The test system of experiment [20] is HCC-2998 colon.

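Five concentrations, 48 hours, 96-well plates. The concentration for full growth arrest is given as TGI.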

In the case of `COc1ccc2oc(=N)c(C(=O)NCc3ccccc3)cc2c1`, the TGI is greater than 100 µM in experiment [1]; 29.6 µM in experiment [2]; 42.4 µM in experiment [3]; greater than 100 µM in experiment [4]; 56.6 µM in [5]; 40.4 µM in [6]. Further, the TGI in [7] is greater than 100 µM; in experiment [8], 42.7 µM; in experiment [9] it was greater than 100 µM; in [10], 55.8 µM; in experiment [11], greater than 100 µM; in experiment [12], greater than 100 µM. Moreover, the TGI is 65 µM in experiment [13]; 69.1 µM in [14]; 85 µM in experiment [15]; greater than 100 µM in experiment [16]; greater than 100 µM in experiment [17]; 37.2 µM in [18].

Regarding `CC(=O)N1C(=O)/C(=C\C(=O)c2ccc([N+](=O)[O-])cc2)c2ccccc21`, the TGI was 41.1 µM in [1]; 38.1 µM in experiment [19]; 55.5 µM in experiment [2]; greater than 100 µM in experiment [3]; 51.6 µM in experiment [4]; 36.7 µM in experiment [20]. In addition, the TGI in experiment [5] is 49.8 µM; in [6], greater than 100 µM; in [7], 51.6 µM; in experiment [8], 54.2 µM; in [9], 34.6 µM; in experiment [10], greater than 100 µM. Besides, the TGI in experiment [11] is 26.3 µM; in [12], 29.1 µM; in experiment [13], greater than 100 µM; in [14], 69.7 µM; in experiment [15], greater than 100 µM; in [17], greater than 100 µM. The TGI in [18] was found to be 46.4 µM.

For the compound `CCN(CC)CCC(=O)c1ccc(Oc2ccc(Cl)cc2)cc1`, the TGI in experiment [1] came out at 45.1 µM; in experiment [19], 35.2 µM; in experiment [2], 32.2 µM; in experiment [3] it was 43.2 µM; in [4] it was 42.2 µM; in [20], 34.2 µM. Also, the TGI was found to be 42.1 µM in experiment [5]; 44.9 µM in [6]; 42.2 µM in experiment [7]; 59 µM in [8]; 47.2 µM in experiment [9]; 24.1 µM in experiment [10]. For the same compound, the TGI was 33.1 µM in experiment [11]; 28.3 µM in [12]; 32.4 µM in experiment [13]; 55.9 µM in experiment [14]; 28.8 µM in experiment [16]; greater than 100 µM in experiment [17]. This compound also yielded a TGI in experiment [18] of 33.1 µM.

`COCCN(C(C)=O)C1CCC2(SCCS2)c2[nH]c3ccccc3c21` (stereo not given): the TGI in experiment [1], in experiment [2], in [3], in experiment [4], in experiment [20] and in experiment [5] was greater than 100 µM throughout. For the same compound, the TGI in experiment [6], in experiment [7], in [8], in experiment [9], in experiment [10] and in experiment [11] was greater than 100 µM each time. The TGI in [12], in experiment [13], in experiment [14], in experiment [15], in experiment [16] and in experiment [17] was greater than 100 µM in each case. Also, the TGI in experiment [18] is greater than 100 µM.

`O=C(/C=C/c1ccccc1)/C=N/N1C(=S)N(c2ccccc2)C(=Nc2ccccc2)C1=Nc1ccccc1`: the TGI in experiment [1], in experiment [19], in experiment [2], in [3], in [4] and in experiment [20] was greater than 100 µM in each case. The TGI in experiment [5], in [6], in experiment [7], in [8], in [9] and in [10] was greater than 100 µM throughout. Moreover, the TGI in [11], in experiment [12], in experiment [13], in experiment [14], in experiment [15] and in [17] was greater than 100 µM throughout. Besides, the TGI in experiment [18] is greater than 100 µM.

As to `CCOC(=O)C(=[N+]=[N-])C(=O)C1(C(=O)OCC)CCN(C(=O)c2ccccc2)C1=O` (stereo not given), the TGI in experiment [1], in [19], in experiment [2], in [3], in experiment [4] and in [5] was greater than 100 µM throughout. Moreover, the TGI in experiment [6], in experiment [7], in [8], in experiment [9], in experiment [10] and in [11] was greater than 100 µM in each case. Besides, the TGI in experiment [12], in experiment [13], in [14], in experiment [15], in experiment [16] and in [17] was greater than 100 µM in each case.

As for `CC(=O)OCOC(=O)CN(CC(=O)OCOC(C)=O)Cc1cc2c(cc1OC(C)=O)Oc1cc(OC(C)=O)c(CN(CC(=O)OCOC(C)=O)CC(=O)OCOC(C)=O)cc1C21OC(=O)c2ccccc21`, the TGI in [1] turned out to be 1.86 µM; in experiment [19], 1.19 µM; in experiment [3] it was 1.43 µM; in [4], 0.843 µM; in [5] it was 1.05 µM; in experiment [6], 3.23 µM. Besides, the TGI in experiment [7] worked out at 10.6 µM; in experiment [8] it was 1.59 µM; in experiment [9], 1.88 µM; in experiment [10] it was 3.48 µM; in experiment [11], 3 µM; in experiment [12], 1.41 µM. For the same compound, the TGI in experiment [13] was 11.1 µM; in experiment [14], 7.73 µM; in experiment [15], 2.86 µM; in [16] it was 1.29 µM; in experiment [17] it was 6.16 µM; in experiment [18] it was 8.5 µM.
